Data as given in article PMC5424110, “Preclinical anti-arthritic study and pharmacokinetic properties of a potent histone deacetylase inhibitor MPT0G009” (Cell Death & Disease, 2014).

Test system: NF-κB in RAW264.7 cells
Test: NF-κB luciferase reporter gene assay, RANKL-induced
Format: cell-based, mouse
Conditions: RAW264.7, 5 nM, RANKL 50 ng/ml 24 h
Procedure: We also assessed the effect of MTP0G009 on the DNA-binding activity of NF-κB and NFATc1, two pivotal transcriptional factors involved in RANKL-induced pathways for promoting osteoclast differentiation.[14], [15] When RAW264.7 cells that had been transiently transfected with reporter plasmids were treated with 5 nM MPT0G009 for 30 min before and during 24-h stimulation with RANKL, MPT0G009 inhibited RANKL-induced NF-κB (Figure 3d) and NFATc1 (Figure 3e) luciferase activity.
RAW264.7 cells or RA-FLSs were seeded 1 day before transfection. […] For the reporter gene assay, 100 μl of reporter lysis buffer (Promega Corp.) was added, then the cells were scraped off the dishes, centrifuged at 17 000 g for 30 s at 4 °C and the supernatants collected. Aliquots of cell lysates (20 μl) were placed in the wells of an opaque black 96-well microtiter plate, then 40 μl of luciferase substrate (Promega Corp.) was added and the luminescence immediately measured in a microplate luminometer (Beckman Coulter, Krefeld, Germany).

COc1ccc(S(=O)(=O)N2CCc3cc(C=CC(=O)NO)ccc32)cc1 [MPT0G009, 3-[1-(4-methoxybenzenesulfonyl)-2,3-dihydro-1H-indol-5-yl]-N-hydroxyacrylamide]
RANKL-induced NF-κB luciferase activity: inhibited
